In this test the test system is L1210 leukemia ip in BDF1 mice, survival T/C. Briefly: NCI In Vivo Anticancer Drug Screen. Data for tumor model L1210 Leukemia (intraperitoneal) in B6D2F1 (BDF1) mice. To be noted: endpoint: mean survival time, higher = longer survival. Put shortly:
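In this screen, tumor-bearing mice given compound are compared to those given vehicle, and their survival values are reported as a treated-to-control quotient.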

Where [1] appears, read: dose: 100.0 mg/kg/injection, schedule: Q04DX003 (ip), vehicle: saline.
Where [2] appears, read: dose: 100.0 mg/kg/injection, schedule: Q01DX009 (ip), vehicle: Klucel (hydroxypropylcellulose) (HPC).
Setting [3] is: dose: 200.0 mg/kg/injection, schedule: Q01DX009 (ip), vehicle: Klucel (hydroxypropylcellulose) (HPC).
[4] abbreviates: dose: 400.0 mg/kg/injection, schedule: Q01DX009 (ip), vehicle: Klucel (hydroxypropylcellulose) (HPC).
The mark [5] stands for this setting: dose: 50.0 mg/kg/injection, schedule: Q01DX001 (ip), vehicle: saline.
The mark [6] stands for this setting: dose: 200.0 mg/kg/injection, schedule: Q01DX001 (ip), vehicle: saline.
[7] abbreviates: dose: 400.0 mg/kg/injection, schedule: Q01DX001 (ip), vehicle: saline.
The mark [8] stands for this setting: dose: 100.0 mg/kg/injection, schedule: Q01DX001 (ip), vehicle: saline.
The mark [9] stands for this setting: dose: 100.0 mg/kg/injection, schedule: Q04DX003 (ip), vehicle: saline with Tween-80.
The mark [10] stands for this setting: dose: 200.0 mg/kg/injection, schedule: Q04DX003 (ip), vehicle: saline with Tween-80.
Setting [11] is: dose: 100.0 mg/kg/injection, schedule: Q04DX002 (ip), vehicle: Klucel (hydroxypropylcellulose) (HPC).
Setting [12] is: dose: 200.0 mg/kg/injection, schedule: Q04DX002 (ip), vehicle: Klucel (hydroxypropylcellulose) (HPC).
[13] abbreviates: dose: 400.0 mg/kg/injection, schedule: Q04DX002 (ip), vehicle: Klucel (hydroxypropylcellulose) (HPC).
Setting [14] is: dose: 100.0 mg/kg/injection, schedule: Q04DX003 (ip), vehicle: Klucel (hydroxypropylcellulose) (HPC).
Setting [15] is: dose: 200.0 mg/kg/injection, schedule: Q04DX003 (ip), vehicle: Klucel (hydroxypropylcellulose) (HPC).
Where [16] appears, read: dose: 400.0 mg/kg/injection, schedule: Q04DX003 (ip), vehicle: Klucel (hydroxypropylcellulose) (HPC).
The mark [17] stands for this setting: dose: 100.0 mg/kg/injection, schedule: Q01DX009 (ip), vehicle: saline with Tween-80.
The mark [18] stands for this setting: dose: 200.0 mg/kg/injection, schedule: Q01DX009 (ip), vehicle: saline with Tween-80.

SMILES strings stand for the structures. Values joined by “and” are separate entries in the source; they are usually repeats but may differ in a detail not shown here. Identical values can stand only once. Inconclusive results and toxic doses are left out.

Regarding `CCCCCCCCN1CCCNCC1`, the T/C runs as follows: (dose: 6.25 mg/kg/injection, schedule: Q01DX009 (ip), vehicle: saline) 96 % of control; (dose: 12.5 mg/kg/injection, schedule: Q01DX009 (ip), vehicle: saline) 102 % of control; (dose: 25.0 mg/kg/injection, schedule: Q01DX009 (ip), vehicle: saline) 96 % of control; (dose: 25.0 mg/kg/injection, schedule: Q04DX003 (ip), vehicle: saline) 121 % of control; (dose: 50.0 mg/kg/injection, schedule: Q04DX003 (ip), vehicle: saline) 109 % of control; under setting [1], 87 % of control.
In the case of `O=C(Nc1ccccc1F)C(Br)C(Br)c1ccccc1` (configuration not stated), the T/C is, setting by setting: under setting [2], 92 % of control; under setting [3], 100 % of control; under setting [4], 96 % of control.
For the molecule `COc1ccccc1/C=N\NC(=O)CCCC(=O)N/N=C/c1ccccc1OC`, the T/C was 95 % of control under setting [5], 95 % of control under setting [6] and 90 % of control under setting [7].
As for `CN=[N+]([O-])c1ccccc1`, the T/C reads like this: under setting [8], 100 % of control; under setting [6], 100 % of control; under setting [7], 97 % of control.
Turning to `COC(CC[P+](c1ccccc1)(c1ccccc1)c1ccccc1)(C(=O)c1ccccc1)c1ccccc1` (configuration not stated), the T/C (dose: 15.0 mg/kg/injection, schedule: Q01DX001 (ip), vehicle: carboxymethylcellulose (CMC)) was 96 % of control; the T/C (dose: 30.0 mg/kg/injection, schedule: Q01DX001 (ip), vehicle: carboxymethylcellulose (CMC)) was 90 % of control; the T/C (dose: 60.0 mg/kg/injection, schedule: Q01DX001 (ip), vehicle: carboxymethylcellulose (CMC)) was 89 % of control.
For `CC(=O)Nc1ccc(/C=C(\C#N)c2cccc3ccccc23)cc1`, the T/C is 90 % of control under setting [2], 87 % of control under setting [3] and 88 % of control under setting [4].
For `CC(N=CN(C)C)c1cccc2ccccc12` (configuration not stated), the T/C is 102 % of control (dose: 75.0 mg/kg/injection, schedule: Q01DX009 (ip), vehicle: saline with Tween-80); 97 % of control under setting [9]; 112 % of control (dose: 150.0 mg/kg/injection, schedule: Q01DX009 (ip), vehicle: saline with Tween-80); 102 % of control under setting [10]; 112 % of control (dose: 300.0 mg/kg/injection, schedule: Q01DX009 (ip), vehicle: saline with Tween-80).
As to `COc1cc2cc3c4ccccc4cc[n+]3c(C)c2cc1OC` (tested in a mixture with another compound), the T/C (dose: 2.5 mg/kg/injection, schedule: Q01DX009 (ip), vehicle: saline) was 102 % of control; the T/C (dose: 5.0 mg/kg/injection, schedule: Q01DX009 (ip), vehicle: saline) was 110 % of control; the T/C (dose: 10.0 mg/kg/injection, schedule: Q01DX009 (ip), vehicle: saline) was 115 % of control; the T/C (dose: 20.0 mg/kg/injection, schedule: Q01DX009 (ip), vehicle: saline) was 121 % of control; the T/C (dose: 40.0 mg/kg/injection, schedule: Q01DX009 (ip), vehicle: saline) was 118 % of control.
For the molecule `C[N+]1(C)CCC(OC(=O)C(O)(c2ccccc2)C2CCCC2)C1` (configuration not stated), under setting [9], the T/C was 100 % of control.
As to `CC1(C)CN=C(c2ccc([N+](=O)[O-])cc2)S1`, the T/C is 100 % of control (dose: 100.0 mg/kg/injection, schedule: Q01DX001 (ip), vehicle: Klucel (hydroxypropylcellulose) (HPC)); 102 % of control (dose: 200.0 mg/kg/injection, schedule: Q01DX001 (ip), vehicle: Klucel (hydroxypropylcellulose) (HPC)); 100 % of control (dose: 400.0 mg/kg/injection, schedule: Q01DX001 (ip), vehicle: Klucel (hydroxypropylcellulose) (HPC)).
As to `CCn1c(C)nc2cc(N=Cc3ccc(N(CCCl)CCCl)cc3F)ccc21`, the T/C under setting [11] was 95 % of control, the T/C under setting [12] is 98 % of control and the T/C under setting [13] is 91 % of control.
Turning to `CCCCCc1cnc(NCCCC(N)C(=O)O)nc1` (configuration not stated), the T/C (dose: 25.0 mg/kg/injection, schedule: Q04DX002 (ip), vehicle: saline with Tween-80) was 95 % of control; the T/C (dose: 50.0 mg/kg/injection, schedule: Q04DX002 (ip), vehicle: saline with Tween-80) is 95 % of control; the T/C (dose: 100.0 mg/kg/injection, schedule: Q04DX002 (ip), vehicle: saline with Tween-80) was 95 % of control.
As to `OCC1OC(n2cnc3c(SCc4ccccc4)nc(NO)nc32)C(O)C1O` (configuration not stated), the T/C (dose: 267.0 mg/kg/injection, schedule: Q01DX001 (ip), vehicle: saline with Tween-80) is 150 % of control.
With `COc1ccc(NC(=O)Nc2ccc(Cl)cc2)cc1`, the T/C runs as follows: under setting [2], 97 % of control; under setting [14], 104 % of control; under setting [3], 98 % of control; under setting [15], 104 % of control; under setting [4], 93 % of control; under setting [16], 106 % of control.
Consider `O=C1c2ccccc2-c2cc(Cl)c(Cl)cc21`, for which the T/C under setting [14] was 96 % of control, the T/C under setting [15] was 103 % of control and the T/C under setting [16] is 105 % of control.
With `O=C(O)CN1C(=O)C2C3CCC(O3)C2C1=O` (configuration not stated), the T/C reads like this: under setting [1], 107 % of control; (dose: 200.0 mg/kg/injection, schedule: Q04DX003 (ip), vehicle: saline) 98 % of control; (dose: 400.0 mg/kg/injection, schedule: Q04DX003 (ip), vehicle: saline) 98 % of control.
As to `CC(Cc1ccccc1)N(C)C(=O)CN1C(=O)c2ccccc2C1=O` (configuration not stated), the T/C under setting [5] is 103 % of control, the T/C under setting [8] is 117 % of control, the T/C under setting [6] was 109 % of control and the T/C under setting [7] was 91 % of control.
`CCCCC(=O)N/N=C\c1ccc(-c2ccccc2)cc1`: the T/C under setting [8] was 93 % of control and the T/C under setting [6] is 96 % of control.
On to `CCOC(=O)c1ccc(NC(=O)Nc2ccc(Cl)cc2)cc1`, for which the T/C runs as follows: under setting [2], 97 % of control; under setting [14], 96 % of control; under setting [3], 104 % of control; under setting [15], 104 % of control; under setting [4], 97 % of control; under setting [16], 100 % of control.
For the molecule `Nc1[nH]c(=O)ncc1-c1ccc(Cl)cc1`, the T/C was 96 % of control (dose: 50.0 mg/kg/injection, schedule: Q01DX009 (ip), vehicle: Klucel (hydroxypropylcellulose) (HPC)) and 100 % of control under setting [2].
For the molecule `CCCP(=S)(CC)CC`, the T/C under setting [11] was 90 % of control, the T/C under setting [12] is 93 % of control and the T/C under setting [13] is 90 % of control.
With `Cc1ccc(CSC(=N)N)cc1C`, the T/C (dose: 25.0 mg/kg/injection, schedule: Q04DX002 (ip), vehicle: Klucel (hydroxypropylcellulose) (HPC)) is 98 % of control; the T/C (dose: 50.0 mg/kg/injection, schedule: Q04DX002 (ip), vehicle: Klucel (hydroxypropylcellulose) (HPC)) is 103 % of control; the T/C under setting [11] is 101 % of control.
`Cc1c(Cl)cccc1NC(=O)Sc1ccc(C(C)(C)C)cc1`: the T/C reads like this: under setting [2], 100 % of control; under setting [3], 90 % of control; under setting [4], 98 % of control.
With `COc1ccc(/C=N/NC(=O)C[n+]2ccccc2)cc1`, the T/C is 91 % of control (dose: 50.0 mg/kg/injection, schedule: Q01DX009 (ip), vehicle: saline with Tween-80); 112 % of control under setting [17]; 88 % of control under setting [18].
On to `CCOC(=O)c1cnc(C)nc1Nc1ccccc1`, for which the T/C under setting [14] was 97 % of control, the T/C under setting [15] is 103 % of control and the T/C under setting [16] is 108 % of control.
Consider `CC(CC(=O)O)NC(=O)OCc1ccccc1` (configuration not stated), for which the T/C reads like this: (dose: 100.0 mg/kg/injection, schedule: Q01DX001 (ip), vehicle: saline with Tween-80) 101 % of control; under setting [17], 100 % of control and 107 % of control; under setting [9], 103 % of control; (dose: 200.0 mg/kg/injection, schedule: Q01DX001 (ip), vehicle: saline with Tween-80) 98 % of control; under setting [18], 97 % of control and 90 % of control; under setting [10], 94 % of control. Further, the T/C (dose: 400.0 mg/kg/injection, schedule: Q01DX001 (ip), vehicle: saline with Tween-80) is 95 % of control; the T/C (dose: 400.0 mg/kg/injection, schedule: Q01DX009 (ip), vehicle: saline with Tween-80) was 100 % of control and 90 % of control; the T/C (dose: 400.0 mg/kg/injection, schedule: Q04DX003 (ip), vehicle: saline with Tween-80) is 97 % of control.

The values above are taken from PubChem BioAssay AID248 (DTP/NCI, 2004).
